The record followed here is ChEMBL document CHEMBL3046315, “Synthesis and Fungicidal Activity of New Thiophosphorylated Monoterpenoids and Related Compounds” (1996).

What all share (format): functional
Assay [1] deals with Athelia rolfsii. Nature of the assay: Fungicidal activity against Athelia rolfsii assessed as growth inhibition at 10 ppm after 5 days by agar dilution test. The following applies: Agroathelia rolfsii, 120 h; read-out: GI. (In agar dilution the substance is mixed into plates at graded concentrations.)
In assay [2] the test system is Pythium. As to the kind of experiment: Fungicidal activity against Pythium sp. assessed as growth inhibition at 100 ppm after 5 days by agar dilution test. Particulars: 120 h, read-out: GI.
Assay [3] deals with Athelia rolfsii. Nature of the assay: Fungicidal activity against Athelia rolfsii assessed as growth inhibition at 100 ppm after 5 days by agar dilution test. The following applies: Agroathelia rolfsii, 120 h; read-out: GI.
The test system of assay [4] is Pythium. Nature of the assay: Fungicidal activity against Pythium sp. assessed as growth inhibition at 10 ppm after 5 days by agar dilution test. Particulars: 120 h, read-out: GI.

Turning to `COP(=S)(OC)OCCC(C)CCC=C(C)C` (configuration not stated), the inhibition of growth at 10 ppm in assay [1] turned out to be 36.2%. Further, the values for the inhibition of growth at 100 ppm in assay [2] and in assay [3] were 30% and 76.9%, respectively.

Take `COP(=S)(OC)Oc1cc(C(C)C)ccc1C`: the inhibition of growth at 10 ppm in assay [1] is 37.5%; in assay [4], 22.8%. In addition, the inhibition of growth at 100 ppm in assay [2] amounted to 61.1%; in assay [3] it was 85.2%.

Regarding `COP(=S)(OC)Oc1cc(C)ccc1C(C)C`, the inhibition of growth at 10 ppm was determined as 29.3% in assay [1] and 32.5% in assay [4]. For the same compound, the inhibition of growth at 100 ppm in assay [2] is 67.4%; in assay [3], 84.3%.

Consider `C=CCc1ccc(OP(=S)(OC)OC)c(OC)c1`, for which the inhibition of growth at 10 ppm in assay [1] amounted to 38.5%. In addition, the results for the inhibition of growth at 100 ppm in assay [2] and in assay [3] were 44.9% and 90.5%, respectively.

As to `COP(=S)(OC)OCCc1ccccc1`, the inhibition of growth at 10 ppm in assay [1] worked out at 56.6%; in assay [4], 39.6%. For the same compound, the values for the inhibition of growth at 100 ppm in assay [2] and in assay [3] were 89.8% and 100%, respectively.

Take `CCOP(=S)(OCC)OCCC(C)CCC=C(C)C` (configuration not stated): the inhibition of growth at 100 ppm is 10.2% in assay [2] and 31.3% in assay [3].

For `CCOP(=S)(OCC)Oc1cc(C(C)C)ccc1C`, the inhibition of growth at 100 ppm in assay [2] was found to be 19.8%; in assay [3], 58.2%.

Turning to `CCOP(=S)(OCC)Oc1cc(C)ccc1C(C)C`, the inhibition of growth at 100 ppm in assay [2] amounted to 52.9%; in assay [3] it was 56.8%.

As to `C=CCc1ccc(OP(=S)(OCC)OCC)c(OC)c1`, the results for the inhibition of growth at 100 ppm in assay [2] and in assay [3] were 34.3% and 60.2%, respectively.

Take `CCOP(=S)(OCC)OCCc1ccccc1`: in assay [1], the inhibition of growth at 10 ppm amounted to 42.3%. For the same compound, the figures for the inhibition of growth at 100 ppm in assay [2] and in assay [3] were 68.8% and 95.1%, respectively.

Consider `Cc1ccc(C(C)C)cc1OP(=S)(Oc1cc(C(C)C)ccc1C)c1ccccc1`, for which the inhibition of growth at 100 ppm in assay [2] and in assay [3] was 0% each time.

Turning to `Cc1ccc(C(C)C)c(OP(=S)(Oc2cc(C)ccc2C(C)C)c2ccccc2)c1`, the inhibition of growth at 100 ppm is 1.3% in assay [2] and 0% in assay [3].

As to `CCOP(O)(=S)OCCC(C)CCC=C(C)C` (configuration not stated), the inhibition of growth at 10 ppm was 0% in assay [1] and 15.8% in assay [4]. In addition, the inhibition of growth at 100 ppm in assay [2] was 67%; in assay [3], 70.7%.

With `CCOP(O)(=S)Oc1cc(C)ccc1C(C)C` (configuration not stated), the inhibition of growth at 100 ppm amounted to 55.7% in assay [2] and 46% in assay [3].

For `C=CCc1ccc(OP(O)(=S)OCC)c(OC)c1` (configuration not stated), the inhibition of growth at 100 ppm in assay [2] turned out to be 37.3%; in assay [3], 24.7%.

On to `CCOP(O)(=S)OCCc1ccccc1` (configuration not stated), for which the inhibition of growth at 100 ppm in assay [2] worked out at 61.1%; in assay [3] it was 29.2%.

Turning to `CC(C)=CCCC(C)CCO` (configuration not stated) [CITRONELLOL], the inhibition of growth at 10 ppm in assay [4] was 0%. The results for the inhibition of growth at 100 ppm in assay [2] and in assay [3] were 68.9% and 23.9%, respectively.

`CCOP(=S)(OCCC(C)CCC=C(C)C)OCCC(C)CCC=C(C)C` (configuration not stated) [DICITRONELLYL PHOSPHOROTHIONATE]: the figures for the inhibition of growth at 100 ppm in assay [2] and in assay [3] were 64.5% and 30.3%, respectively.

Take `C=CCc1ccc(OP(=S)(OCC)Oc2ccc(CC=C)cc2OC)c(OC)c1` [DIEUGENOL PHOSPHOROTHIONATE]: the figures for the inhibition of growth at 100 ppm in assay [2] and in assay [3] were 34.6% and 6.1%, respectively.

Turning to `CCOP(=S)(Oc1cc(C(C)C)ccc1C)Oc1cc(C(C)C)ccc1C` [DIISOTHYMOL PHOSPHOROTHIONATE], the figures for the inhibition of growth at 100 ppm in assay [2] and in assay [3] were 67% and 36.8%, respectively.

For `CCOP(=S)(OCCc1ccccc1)OCCc1ccccc1` [DIPHENETHYL ETHYL PHOSPHOROTHIONATE], the inhibition of growth at 100 ppm in assay [2] stood at 23.3%; in assay [3], 33.4%.

As for `CCOP(=S)(Oc1cc(C)ccc1C(C)C)Oc1cc(C)ccc1C(C)C` [DITHYMOL PHOSPHOROTHIONATE], the inhibition of growth at 100 ppm in assay [2] worked out at 58.4%; in assay [3], 30.3%.

Consider `CCOP(O)(=S)Oc1cc(C(C)C)ccc1C` (configuration not stated) [ETHYL ISOTHYMYL HYDROGENPHOSPHOROTHIONATE], for which the inhibition of growth at 10 ppm in assay [4] amounted to 10.4%. The figures for the inhibition of growth at 100 ppm in assay [2] and in assay [3] were 71% and 54.9%, respectively.

With `C=CCc1ccc(O)c(OC)c1` [EUGENOL], the values for the inhibition of growth at 10 ppm in assay [1] and in assay [4] were 5.9% and 7.4%, respectively. Further, the results for the inhibition of growth at 100 ppm in assay [2] and in assay [3] were 92.7% and 67.6%, respectively.

As for `CC(C)OP(=O)(OC(C)C)SCc1ccccc1` [IPROBENFOS], the inhibition of growth at 10 ppm in assay [1] came out at 68.8%; in assay [4], 41.7%. Besides, the results for the inhibition of growth at 100 ppm in assay [2] and in assay [3] were 88.5% and 100%, respectively.

Regarding `Cc1ccc(O)c(C(C)C)c1` [ISOTHYMOL], the inhibition of growth at 10 ppm was determined as 38% in assay [1] and 24.2% in assay [4]. Further, the inhibition of growth at 100 ppm stood at 94.3% in assay [2] and 72.4% in assay [3].

Take `OCCc1ccccc1` [PHENYLETHYL ALCOHOL]: the results for the inhibition of growth at 100 ppm in assay [2] and in assay [3] were 50.9% and 0%, respectively.

`Cc1ccc(C(C)C)c(O)c1` [THYMOL]: the inhibition of growth at 10 ppm in assay [1] was found to be 28.3%; in assay [4], 29.6%. The inhibition of growth at 100 ppm in assay [2] came to 93%; in assay [3], 71%.
